Reference: PubChem BioAssay AID256 (DTP/NCI, 2004)
“And” between values parts separate entries of the source, which are not always exact repeats. Identical values can stand only once. Toxic doses and inconclusive results are not listed. How the source made its calls: active means survival T/C of 150% or more; inactive means T/C below 125% in these data.

System: CD2F1 mice, L1210 leukemia ip, survival T/C
Assay: NCI In Vivo Anticancer Drug Screen. Data for tumor model L1210 Leukemia (intraperitoneal) in CD2F1 (CDF1) mice
Details: endpoint: mean survival time, higher = longer survival
In short: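 Transplantable tumor in mice; compound-treated vs vehicle-treated groups. Read-out = treated/control ratio of the measured endpoint.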

[1] = dose: 12.5 mg/kg/injection, schedule: Q01DX005 (ip), vehicle: other
[2] = dose: 100.0 mg/kg/injection, schedule: Q01DX009 (ip), vehicle: saline with Tween-80
[3] = dose: 100.0 mg/kg/injection, schedule: Q04DX003 (ip), vehicle: saline with Tween-80
[4] = dose: 200.0 mg/kg/injection, schedule: Q01DX009 (ip), vehicle: saline with Tween-80
[5] = dose: 200.0 mg/kg/injection, schedule: Q04DX003 (ip), vehicle: saline with Tween-80
[6] = dose: 400.0 mg/kg/injection, schedule: Q01DX009 (ip), vehicle: saline with Tween-80
[7] = dose: 400.0 mg/kg/injection, schedule: Q04DX003 (ip), vehicle: saline with Tween-80
[8] = dose: 100.0 mg/kg/injection, schedule: Q01DX001 (ip), vehicle: saline with Tween-80
[9] = dose: 200.0 mg/kg/injection, schedule: Q01DX001 (ip), vehicle: saline with Tween-80
[10] = dose: 400.0 mg/kg/injection, schedule: Q01DX001 (ip), vehicle: saline with Tween-80

Measured: T/C

C[CH2][Sn]1([CH2]C)[O]C2C(CO)OC(n3cnc4c(N)ncnc43)C2[O]1 (stereo not given)
inactive: dose: 1.56 mg/kg/injection, schedule: Q01DX005 (ip), vehicle: other 100 % of control | dose: 3.13 mg/kg/injection, schedule: Q01DX005 (ip), vehicle: other 102 % of control | dose: 6.25 mg/kg/injection, schedule: Q01DX005 (ip), vehicle: other 104 % of control | [1] 105 % of control and 106 % of control

CC(C)(C)N=C=N[N+](C)(C)Cc1ccccc1
inactive: dose: 6.25 mg/kg/injection, schedule: Q01DX009 (ip), vehicle: saline 95 % of control | dose: 12.5 mg/kg/injection, schedule: Q01DX009 (ip), vehicle: saline 98 % of control | dose: 25.0 mg/kg/injection, schedule: Q01DX009 (ip), vehicle: saline 111 % of control

COC1=C(C#N)CC2(C)C(CCC3C2CCC2(C)C(C(C)CCCC(C)C)CCC32)C1 (stereo not given)
inactive: dose: 100.0 mg/kg/injection, schedule: Q04DX003 (ip), vehicle: saline sonified 92 % of control | dose: 200.0 mg/kg/injection, schedule: Q04DX003 (ip), vehicle: saline sonified 93 % of control | dose: 400.0 mg/kg/injection, schedule: Q04DX003 (ip), vehicle: saline sonified 92 % of control

CC(=O)CC(C)(C)C1CCCCC1
inactive: dose: 25.0 mg/kg/injection, schedule: Q01DX009 (ip), vehicle: Klucel (hydroxypropylcellulose) (HPC) 93 % of control | dose: 50.0 mg/kg/injection, schedule: Q01DX009 (ip), vehicle: Klucel (hydroxypropylcellulose) (HPC) 93 % of control | dose: 100.0 mg/kg/injection, schedule: Q01DX009 (ip), vehicle: Klucel (hydroxypropylcellulose) (HPC) 96 % of control | dose: 200.0 mg/kg/injection, schedule: Q01DX009 (ip), vehicle: Klucel (hydroxypropylcellulose) (HPC) 93 % of control

COC(=O)NCCCCl
inactive: dose: 37.5 mg/kg/injection, schedule: Q01DX007 (ip), vehicle: saline 94 % of control | dose: 75.0 mg/kg/injection, schedule: Q01DX007 (ip), vehicle: saline 103 % of control | dose: 150.0 mg/kg/injection, schedule: Q01DX007 (ip), vehicle: saline 97 % of control | dose: 300.0 mg/kg/injection, schedule: Q01DX007 (ip), vehicle: saline 94 % of control | dose: 600.0 mg/kg/injection, schedule: Q01DX007 (ip), vehicle: saline 94 % of control

O=S(=O)(c1ccc(Cl)cc1)c1ccc(Cl)cc1
inactive: dose: 100.0 mg/kg/injection, schedule: Q01DX001 (ip), vehicle: Klucel (hydroxypropylcellulose) (HPC) 93 % of control | dose: 200.0 mg/kg/injection, schedule: Q01DX001 (ip), vehicle: Klucel (hydroxypropylcellulose) (HPC) 90 % of control | dose: 400.0 mg/kg/injection, schedule: Q01DX001 (ip), vehicle: Klucel (hydroxypropylcellulose) (HPC) 96 % of control

CCOC(=O)C(Cc1ccc(OC)c(OC)c1)C(Cc1ccc(OC)c(OC)c1)C(=O)OCC (stereo not given)
inactive: [2] 96 % of control | [3] 95 % of control | [4] 95 % of control | [5] 93 % of control | [6] 96 % of control | [7] 87 % of control

S=c1nc[nH]c2nc(-c3ccccc3)[nH]c12
inactive: [1] 98 % of control | dose: 25.0 mg/kg/injection, schedule: Q01DX005 (ip), vehicle: other 96 % of control | dose: 50.0 mg/kg/injection, schedule: Q01DX005 (ip), vehicle: other 102 % of control | dose: 100.0 mg/kg/injection, schedule: Q01DX005 (ip), vehicle: other 98 % of control | dose: 200.0 mg/kg/injection, schedule: Q01DX005 (ip), vehicle: other 93 % of control

NC(=O)/C=C/C(N)=O
inactive: [2] 98 % of control | [4] 98 % of control

Cc1cc([N+](=O)[O-])c2ccccc2[n+]1[O-]
inactive: [3] 100 % of control

Cc1cc(C)c(O)c(C)c1.[Hg]
inactive: dose: 1.56 mg/kg/injection, schedule: Q01DX001 (ip), vehicle: Klucel (hydroxypropylcellulose) (HPC) 98 % of control | dose: 3.13 mg/kg/injection, schedule: Q01DX001 (ip), vehicle: Klucel (hydroxypropylcellulose) (HPC) 92 % of control | dose: 6.25 mg/kg/injection, schedule: Q01DX001 (ip), vehicle: Klucel (hydroxypropylcellulose) (HPC) 103 % of control

c1ccc2c(NCCCCCCNc3c4ccccc4nc4ccccc34)c3ccccc3nc2c1
inactive: dose: 0.62 mg/kg/injection, schedule: Q01DX009 (ip), vehicle: Klucel (hydroxypropylcellulose) (HPC) 103 % of control | dose: 1.25 mg/kg/injection, schedule: Q01DX009 (ip), vehicle: Klucel (hydroxypropylcellulose) (HPC) 114 % of control and 123 % of control and 111 % of control | dose: 2.5 mg/kg/injection, schedule: Q01DX009 (ip), vehicle: Klucel (hydroxypropylcellulose) (HPC) 115 % of control and 109 % of control | dose: 5.0 mg/kg/injection, schedule: Q01DX009 (ip), vehicle: Klucel (hydroxypropylcellulose) (HPC) 123 % of control and 111 % of control | dose: 10.0 mg/kg/injection, schedule: Q01DX009 (ip), vehicle: Klucel (hydroxypropylcellulose) (HPC) 111 % of control | dose: 20.0 mg/kg/injection, schedule: Q01DX009 (ip), vehicle: Klucel (hydroxypropylcellulose) (HPC) 104 % of control

CCOc1cccc(Cc2cn(Cc3cccc(NC(=O)Nc4ccc(S(=O)(=O)F)cc4)c3)c(=O)[nH]c2=O)c1
inactive: [8] 86 % of control | [9] 92 % of control | [10] 86 % of control

O.O=S(=O)(O)O.[Co+3].[NH2-].[NH2-].[NH2-].[NH2-].[NH2-]
inactive: dose: 200.0 mg/kg/injection, schedule: Q04DX002 (ip), vehicle: saline with Tween-80 123 % of control

OCCOC1CCC(O)C2CCCCC12 (stereo not given)
inactive: dose: 100.0 mg/kg/injection, schedule: Q01DX001 (ip), vehicle: saline sonified 103 % of control | dose: 200.0 mg/kg/injection, schedule: Q01DX001 (ip), vehicle: saline sonified 98 % of control | dose: 400.0 mg/kg/injection, schedule: Q01DX001 (ip), vehicle: saline sonified 109 % of control

Cc1ccc(N2CCN(CCCCCC(=O)O)CC2)cc1Cl
inactive: [3] 106 % of control | dose: 176.0 mg/kg/injection, schedule: Q04DX003 (ip), vehicle: saline with Tween-80 117 % of control | [5] 104 % of control | dose: 264.0 mg/kg/injection, schedule: Q04DX003 (ip), vehicle: saline with Tween-80 113 % of control

Nc1nc(=O)n(CCCOc2ccccc2NC(=O)c2cccc(S(=O)(=O)F)c2)cc1-c1ccc(Cl)c(Cl)c1
inactive: [8] 91 % of control | [9] 95 % of control | [10] 98 % of control

COC(=O)CCC(=O)NCCc1c[nH]c2ccccc12
inactive: [3] 98 % of control | [5] 93 % of control | [7] 98 % of control

CCCCCC(C)SC#N (stereo not given)
inactive: [2] 97 % of control

C1=C[N-]c2c3c(ccc2=C1)=CC=C[N-]3.C1=C[N-]c2c3c(ccc2=C1)=CC=C[N-]3.[Cl][Ru][Cl]
inactive: dose: 3.13 mg/kg/injection, schedule: Q04DX003 (ip), vehicle: water 90 % of control | dose: 6.25 mg/kg/injection, schedule: Q04DX003 (ip), vehicle: water 90 % of control | dose: 12.5 mg/kg/injection, schedule: Q04DX003 (ip), vehicle: water 88 % of control

C=C(C)CSC#N
inactive: dose: 25.0 mg/kg/injection, schedule: Q04DX003 (ip), vehicle: saline with Tween-80 97 % of control | dose: 50.0 mg/kg/injection, schedule: Q04DX003 (ip), vehicle: saline with Tween-80 100 % of control | [3] 100 % of control and 107 % of control

CC1(C(=O)O)CC1(C)C(=O)O (stereo not given)
inactive: [2] 93 % of control | [4] 91 % of control | [6] 90 % of control

Cc1ccc(S(=O)(=O)OC2CCCCC2c2cccc(Cl)c2)cc1 (stereo not given)
inactive: dose: 75.0 mg/kg/injection, schedule: Q01DX001 (ip), vehicle: other 92 % of control | dose: 150.0 mg/kg/injection, schedule: Q01DX001 (ip), vehicle: other 88 % of control | dose: 300.0 mg/kg/injection, schedule: Q01DX001 (ip), vehicle: other 101 % of control
